Consider seven compounds from article PMC7508583, “Discovery and Preclinical Development of Antigiardiasis Fumagillol Derivatives” (Antimicrobial Agents and Chemotherapy, 2020).

≈ marks a conversion by molar mass, not a printed value. Read-outs that look alike come from different tables or passages of the source.

The test system of assay [1] is G. lamblia WB trophozoites. Kind of assay: Trophozoite growth inhibition, ATP content (ATPlite) assay. It counts as cell-based. The conditions noted are these: Giardia duodenalis, 72 h, read-out: Mean [IC50 ± SE(IC50)] G. lamblia WB. Here is the method: (§1) Antigiardia assays followed by enzyme inhibition determination facilitated the selection of compounds for permeation and stability studies by in vitro methods, prior to advancing to in vivo studies. Compound potency was evaluated first by measuring G. lamblia trophozoite growth as a function of the compound concentration and calculating the IC50 values. Potency in Entamoeba histolytica trophozoites was also determined because of the early report that fumagillin cured amebiasis ([19]). The intent was to test whether the compounds would be suitable to treat gastrointestinal amebiasis rather than the invasive form of the disease, given that the designed strategy was based on reducing compound permeation across the epithelial cell barrier. […] Trophozoite growth was determined by monitoring the ATP cell content using a high-throughput homogeneous assay developed previously for G. lamblia ([57]). The ATP content serves as a marker of cell integrity since ATP degrades rapidly when cells die and the luminescence signal generated by luciferase requires ATP. The same assay was also adopted in 96-well plates for E. histolytica trophozoite growth measurement, as described in Materials and Methods. A similar E. histolytica trophozoite ATP content assay was described previously ([58]). Fumagillin, TNP-470, and a standard-of-care drug (metronidazole) served as positive controls, and cells without the drug (in the presence of 0.5% dimethyl sulfoxide [DMSO]) served as the negative control.
Trophozoites of G. lamblia isolates WB and GS were grown anaerobically in borosilicate glass screw-cap culture tubes (Fisher Scientific) at pH 7.0 in Keister’s modified TYI-S-33 medium (ATCC). The medium was supplemented with 10% heat-inactivated bovine serum (Sigma-Aldrich) and 0.05% bovine bile (Sigma-Aldrich). To attain low-oxygen-tension conditions, the tubes were filled to 85% to 90% of their total volume capacity and incubated without shaking at 37°C. Subcultures (2 × 10^5 trophozoites per tube) were made three times a week. Detachment of trophozoites for inoculation was achieved by chilling the cultures on ice for 20 min. Culturing and detachment of metronidazole-resistant G. lamblia assemblage A 713M3 and assemblage B 1279-M1 trophozoites followed the same protocol, except that the growth medium was supplemented with metronidazole, with the concentration gradually being increased to 10 μM.
(§2) The growth inhibition assays were performed in duplicate, once for each compound, for all compounds except fumagillin, which served as a positive control and whose inhibitory ability was measured multiple times as new sets of compounds were tested. All dry compounds except for fumagillin were dissolved in dimethyl sulfoxide (DMSO; Sigma) at a stock concentration of 10 mM and then diluted 1:100 in growth medium to a final compound concentration of 100 μM; fumagillin was diluted to 20 μM. Compound solution aliquots (100 μl) were prepared by 3-fold serial dilutions in growth medium containing 0.5% DMSO and distributed into 96-well assay plates. This was followed by the addition of 10 μl G. lamblia or E. histolytica culture containing 10,000 trophozoites. Fumagillin served as a positive control, and the medium-diluted DMSO alone served as a negative control. The assay plates were placed in a BD GasPak EZ container system (BD Diagnostics) to create an anaerobic growth environment. The sealed containers were incubated at 37°C for 72 h. Following incubation, 70 μl/well of the ATPlite reagent (PerkinElmer) was added to the assay plates for one-step lysis and ATP level detection. The luminescent signals of the assay plates were measured on an EnSpire 2300 plate reader (PerkinElmer). Concentration-response titration points for each compound were fitted to a 4-parameter logistic nonlinear regression model using the KaleidaGraph tool, yielding the IC50 value and standard error (SE).
For orientation: ATP-based viability assays read luminescence as a measure of living cells.

Assay [2] concerns E. histolytica HM1:IMSS trophozoites. The assay is described as above. It counts as cell-based. As to conditions: Entamoeba histolytica, 72 h, read-out: Mean [IC50 ± SE(IC50)] E. histolytica HM1: IMSS. The protocol: as §1
(§3) E. histolytica strain HM1:IMSS trophozoites were grown at 37°C in TYI-S-33 medium supplemented with penicillin (100 U/ml) and streptomycin sulfate (100 μg/ml) ([65]). Trophozoites were grown anaerobically in borosilicate tubes or T25 flasks, and subcultures were made 1 to 2 times a week. Trophozoites were detached for inoculation by chilling the cultures on ice for 20 min.
as §2, with “The sealed containers were incubated at 37°C for 72 h.” left out

Assay [3] has the same test system. Briefly: Trophozoite viability MLC determination (ameba assay). As to conditions: 3 days treatment, 3 days proliferation without drug. It counts as cell-based, Entamoeba histolytica. The protocol: The inhibition of metabolism enables the organism to resume proliferation once treatment is completed. To discriminate between the lethality of the promising compounds and the induction of metabolic inactivity by the promising compounds, the minimum lethal concentration (MLC) values were determined by treating the trophozoites with the test compounds for 3 days and transferring the resulting cultures to medium lacking the compounds for 3 days of proliferation. This assay was described previously for G. lamblia ([18]) and was adapted to E. histolytica in the current study. In addition to measuring MLC values in the G. lamblia WB and GS strains and in E. histolytica, the MLCs were also measured in metronidazole-resistant G. lamblia strains 713M3 and 1279-M1, to confirm that these compounds were also effective when the metronidazole resistance mechanism evolved. […] Thus, even though fumagillin is a potent anti-G. lamblia drug, it might act in part by metabolic inhibition. Fumagillin’s IC50 and MLC values in E. histolytica were within the same range, supporting the true killing mechanism.
as §3
For the MLC assay, compounds were prepared as described above by 2-fold serial dilutions in fresh growth medium, and 50 μl was transferred into the wells of a 96-well plate in duplicate. Confluent E. histolytica trophozoites were diluted in growth medium to a density of 200 cells/μl. Fifty-microliter cultures were distributed in each well to bring the total assay volume to 100 μl. The plates were kept under an anaerobic environment for 72 h at 37°C. Each well was surveyed under a microscope to visualize trophozoite survival, mobility, and attachment. In all cases, duplicate measurements yielded identical growth/death transitions. The plates were chilled on ice for 30 min, and the entire content of each of 4 wells within the growth/death transition of one of the duplicate experiments was transferred for proliferation into 8-ml tubes containing growth medium and no drug. The tubes were incubated under anaerobic condition for 3 days at 37°C and checked under a microscope. The MLC value was the concentration in the tube with the lowest compound concentration without any live organism.

Where [4] appears, read: trophozoite growth, ATP content.

A word on the IC50: it is the concentration that inhibits the measured activity by half. On to `COC1C(OC(=O)NC(=O)CN2CCOCC2)CCC2(CO2)C1C1(C)OC1CC=C(C)C` (stereo not drawn) [Compound 3], for which the IC50 in assay [1] (setting [4]) was determined as 1.6 ± 0.1 nM; in assay [2] (setting [4]), 4 ± 0.1 nM. Moreover, the “MLC E. histolytica HM:IMSS” value in assay [3] stood at 3.9 nM (≈ 1.76 ng/mL).
With `COC1C(OC(=O)NC(=O)CN2CCC(O)CC2)CCC2(CO2)C1C1(C)OC1CC=C(C)C` (stereo not drawn) [Compound 4], the IC50 in assay [1] (setting [4]) was found to be 6.8 ± 0.3 nM; in assay [2] (setting [4]), 36 ± 4.2 nM. Further, the “MLC E. histolytica HM:IMSS” value in assay [3] turned out to be 7.8 nM (≈ 3.64 ng/mL).
For `CO[C@@H]1[C@H](OC(=O)Nc2ccc(C(=O)O)cc2)CC[C@]2(CO2)[C@H]1[C@@]1(C)O[C@@H]1CC=C(C)C` [Compound 9, 4-(((((3R,4S,5S,6R)-5-methoxy-4-((2R,3R)-2-methyl-3-(3-methylbut-2-en-1-yl)oxiran-2-yl)-1-oxaspiro[2.5]octan-6-yl)oxy)carbonyl)amino)benzoic acid], the IC50 was 6.3 ± 0.7 nM in assay [1] (setting [4]) and 6.7 ± 0.5 nM in assay [2]. The “MLC E. histolytica HM:IMSS” value in assay [3] amounted to 31.3 nM (≈ 13.9 ng/mL).
On to `CCOC(=O)Cc1ccc(NC(=O)OC2CCC3(CO3)C(C3(C)OC3CC=C(C)C)C2OC)cc1` (stereo not drawn) [Compound 11], for which the values for the IC50 in assay [1] (setting [4]) and in assay [2] (setting [4]) were 7.4 ± 1.3 nM and 43 ± 3.4 nM, respectively. In addition, the “MLC E. histolytica HM:IMSS” value in assay [3] worked out at 125 nM (≈ 60.9 ng/mL).
Consider `COC1C(OC(=O)N2CCC(O)CC2)CCC2(CO2)C1C1(C)OC1CC=C(C)C` (stereo not drawn) [Compound 16], for which the IC50 stood at 2.6 ± 0.2 nM in assay [1] (setting [4]) and 2.9 ± 0.2 nM in assay [2] (setting [4]). The “MLC E. histolytica HM:IMSS” value in assay [3] is on record as 3.9 nM (≈ 1.6 ng/mL).
Consider `CO[C@@H]1[C@H](OC(=O)/C=C/C=C/C=C/C=C/C(=O)O)CC[C@]2(CO2)[C@H]1[C@@]1(C)O[C@@H]1CC=C(C)C` [Fumagillin, reference compound], for which the IC50 in assay [1] came out at 9.5 ± 2.2 nM; in assay [2], 47.9 ± 4.8 nM. Besides, the “MLC E. histolytica HM:IMSS” value in assay [3] is 78 nM (≈ 35.8 ng/mL).
As for `Cc1ncc([N+](=O)[O-])n1CCO` [Metronidazole, reference compound], the IC50 in assay [1] (setting [4]) is 5570 ± 877 nM; in assay [2] (setting [4]), 318 ± 16 nM. Also, in assay [3], the “MLC E. histolytica HM:IMSS” value is 1,500 nM.
